In brackets after ≈: the same amount, converted by molar mass.
How the values were obtained:
[1] = test system: Trichomonas vaginalis; experiment: Minimum inhibitory concentration against Trichomonas vaginalis (own test); format: cell-based; settings: comparison with metronidazole
[2] = test system: trichomonads; settings: Grunberg and Titsworth; cited from earlier work
[3] = Grunberg and Titsworth; cited from earlier work
[4] = test system: trichomonads; settings: Lancini et al.; cited from earlier work

| Compound | MIC [1] [mg/L] | also measured |
| --- | --- | --- |
| Cc1nc(-c2ncc([N+](=O)[O-])n2C)nc2c1CCc1ccccc1-2 [2-(5-Nitro-1-methyl-2-imidazolyl)-4-methyl-5,6-dihydrobenzo[h]quinazoline] | 0.1 (≈ 0.311 µM) | – |
| Cc1cc(C)nc(-c2ncc([N+](=O)[O-])n2C)n1 [4,6-Dimethyl-2-(5-nitro-1-methyl-2-imidazolyl)-pyrimidine] | 0.4 (≈ 1.72 µM) | – |
| Cc1cc(-c2ccccc2)nc(-c2ncc([N+](=O)[O-])n2C)n1 [4-Methyl-6-phenyl-2-(5-nitro-1-methyl-2-imidazolyl)pyrimidine] | 0.2 (≈ 0.677 µM) | – |
| Cn1c([N+](=O)[O-])cnc1-c1nc(-c2cccs2)cc(C(F)(F)F)n1 [4-Trifluoromethyl-2-(5-nitro-1-methyl-2-imidazolyl)-6-(2-thienyl)-pyrimidin] | 0.2 (≈ 0.563 µM) | – |
| Cc1ncc([N+](=O)[O-])n1CCO [Metronidazole, 5-nitro-2-methyl-1-(2-hydroxyethyl)-imidazole] | 1.6 (≈ 9.35 µM) | – |
| O=[N+]([O-])c1ncc[nH]1 [azomycin, 2-nitroimidazole] | – | ED50 value (in words, versus metronidazole) [2]: considerably less favorable; LD50 value (in words, versus metronidazole) [3]: considerably less favorable; effectiveness in vitro compared with metronidazole [4]: no more effective in vitro than metronidazole |
